# From patent publication US20260317310A1, “BENZO SIX-MEMBERED HETEROCYCLIC GSPT1 PROTEIN DEGRADATION AGENT AND USE THEREOF” (China Pharmaceutical University, priority 2023, published 2026)
# Entries after “also recorded” stand apart in the source; their conditions may differ.
# Columns and labels:
# [1] = In vivo pharmacokinetic study in rats (IV and PO); design: species or system rat (SD); details: rat; for bioavailability: plasma, PO 10 mg/kg (IV 2 mg/kg); for clearance rate relative to CC-90009 / half-life relative to CC-90009 / initial plasma concentration relative to CC-90009 / plasma drug exposure level relative to CC-90009: IV
# Method: Sample collection and preparation: After SPF SD rats (male, 210-230 g, 42-48 days, RILD Liver) in a good growth state were dosed intravenously at 2 mg/kg and orally at 10 mg/kg, blood samples were collected via the orbit at different blood collection time points and transferred to centrifuge tubes containing an anticoagulant; the intravenous blood collection time points were 0.08 hours, 0.25 hours, 0.5 hours, 1 hour, 2 hours, 4 hours, 6 hours, 8 hours, and 24 hours, and the oral blood collection time points were 0.25 hours, 0.5 hours, 1 hour, 2 hours, 4 hours, 6 hours, 8 hours, and 24 hours. The blood samples were immediately centrifuged at 4° C. and 8000 rpm for 10 minutes, and the plasma was collected and stored in an ultra-low-temperature freezer at −80° C. until it was analyzed by LC-MS/MS.
# Pharmacokinetic data analysis: Pharmacokinetic parameters of the compounds were calculated using pharmacokinetic software in a non-compartmental model. The peak plasma concentration (Cmax) and the time to reach the peak plasma concentration (Tmax) were taken as observation values. Parameters such as the half-life T1/2, the areas under the plasma concentration-time curve AUClast and AUCinf, the apparent volume of distribution Vss, and the clearance rate CL were determined through regression analysis of the linear terminal portion of the logarithmic plasma concentration-time curve and the linear trapezoidal rule.
# GSPT1 [2] = target: T1, GSPT1 (Homo sapiens, UniProt P15170); experiment: Degradation of GSPT1 in KG-1 cells (immunoblot, 200 nM, 4 h); format: cell-based; design: endogenous in cells; host or cells: KG-1; details: FIGS. 1 and 2
# T1 sequence (P15170 whole entry): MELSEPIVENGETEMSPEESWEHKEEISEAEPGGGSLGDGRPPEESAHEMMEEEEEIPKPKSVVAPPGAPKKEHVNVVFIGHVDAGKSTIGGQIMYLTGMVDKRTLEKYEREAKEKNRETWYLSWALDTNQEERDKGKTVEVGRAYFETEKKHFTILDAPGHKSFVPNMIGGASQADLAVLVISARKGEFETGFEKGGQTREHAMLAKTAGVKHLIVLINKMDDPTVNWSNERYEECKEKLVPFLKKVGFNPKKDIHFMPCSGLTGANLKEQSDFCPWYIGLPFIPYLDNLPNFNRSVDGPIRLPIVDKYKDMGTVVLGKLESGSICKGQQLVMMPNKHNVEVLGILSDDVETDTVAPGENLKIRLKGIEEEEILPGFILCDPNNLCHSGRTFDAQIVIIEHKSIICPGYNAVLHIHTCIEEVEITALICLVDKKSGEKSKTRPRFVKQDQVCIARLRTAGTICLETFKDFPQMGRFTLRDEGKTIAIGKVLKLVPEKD
# Method: KG-1 cells (ATCC) were grown in an IMDM culture medium (containing 20% FBS). After centrifugation and counting, the cell concentration was adjusted. The cells were plated onto 6-well plates at 10^6 cells/well, with 1350 μL per well. 150 μL of DMSO and the test compounds of the present disclosure (compound concentration: 200 nM) were added. The plates were incubated in an incubator at 37° C. with 5% CO2 for 4 hours. The cells were centrifuged, and the culture medium was discarded. PBS was added to wash the cells and then discarded. Whole cell lysates were prepared using a protease inhibitor cocktail (100×, Fude Biological), a protein phosphatase inhibitor cocktail (100×, Fude Biological), SuperNuclease (Beyotime), and a high-intensity RIPA lysis buffer (Thermo Fisher) and placed on ice for 30 minutes. After centrifugation, the cell debris precipitates were discarded, and the whole cell lysate supernatants were collected and transferred to new centrifuge tubes. After a BCA protein assay, samples were prepared using a 5× loading buffer (Thermo Fisher). […] Signals were detected using a MINICHEMI™ imaging system. […]
# [3] = Metabolic stability in in vitro rat liver microsomes; format: in vitro ADME; details: NADPH, 37° C.
# Text: RLMs were purchased from RILD Liver.
# GSPT1 [4] = target: T1, GSPT1; experiment: Degradation of GSPT1 in MV4-11 cells (FIG. 1C, 1D); format: cell-based; design: endogenous in cells; details: FIGS. 1 and 2
# GSPT1 [5] = target: T1, GSPT1; experiment: Time-dependent degradation of GSPT1 in AML cells (FIG. 2); format: cell-based; design: KG-1 cells (ATCC) were grown in an IMDM culture medium; endogenous in cells; host or cells: KG-1
# MV411 xenograft = experiment: In vivo pharmacodynamic study in MV411 acute myeloid leukemia xenograft mouse model; design: species or system human leukemia cells in BABL/c Nude mouse
# Method: (§1) The human leukemia cells MV411 (Cell Bank, Chinese Academy of Sciences) used in this experiment were cultured in an IMDM culture medium supplemented with 10% FBS in an incubator containing CO2 at 37° C. Before the cells were continuously sub-cultured to the tenth generation, MV411 cells in the logarithmic growth phase were used, and the cell concentration was adjusted to 1×10^8 cells/mL with a serum-free culture medium. Each BABL/c Nude mouse (Jiangsu GemPharmatech Co., Ltd., female, 4-6 weeks old, 14-16 g) was inoculated with […] of the cell suspension by subcutaneous injection on the right dorsal side (near the axilla) under sterile conditions. When the mean tumor volume of the tumor-bearing mice reached approximately 100 mm^3, the mice were randomly divided into groups, with the tumor volume in each group being roughly the same. The day of grouping and administration was defined as day 0. The animals in each treatment group were given a compound once daily by oral gavage at 15 mg/kg, 30 mg/kg, or 60 mg/kg. The body weight and tumor volume of the animals were measured every other day.
# Experimental indicator: The anti-tumor efficacy of the compounds was evaluated using the relative tumor growth inhibition rate (TGI). Tumor weight TGI (%)={1−[(final average tumor weight of experimental group)/(final average tumor weight of control group of tumor-bearing mice without administration)]}×100%. Tumor volume TGI (%)=[1−relative tumor volume of experimental group/relative tumor volume of control group of tumor-bearing mice without administration]×100%.
# [6] = Body weight in MV411 xenograft mice; format: in vivo, BABL/c Nude mouse; details: A-10 15, 30, 60 mg/kg, A-42 60 mg/kg, oral
# Method: as §1
# 22RV1 xenograft = experiment: In vivo pharmacodynamic study in 22RV1 prostate cancer xenograft mouse model; design: species or system 22RV1 cells in BABL/c Nude mouse
# Method: The 22RV1 cells (Cell Bank, Chinese Academy of Sciences) used in this experiment were cultured in a 1640 culture medium supplemented with 10% FBS in an incubator containing CO2 at 37° C. Before the cells were continuously sub-cultured to the tenth generation, 22RV1 cells in the logarithmic growth phase were used, and the cell concentration was adjusted to 5×10^7 cells/mL with a serum-free culture medium. Each BABL/c Nude mouse was inoculated with […] of the cell suspension by subcutaneous injection on the right dorsal side (near the axilla) under sterile conditions. When the mean tumor volume of the tumor-bearing mice reached approximately 50-100 mm^3, the mice were randomly divided into 4 groups of 8, with the tumor volume in each group being roughly the same. The day of grouping and administration was defined as day 0. The animals in each treatment group were given a compound once daily by oral gavage at 60 mg/kg.
# The body weight and tumor volume of the animals were measured every other day.
# Experimental indicator: The anti-tumor efficacy of the compounds was evaluated using the relative tumor growth inhibition rate (TGI). Tumor weight TGI (%)={1−[(final average tumor weight of experimental group)/(final average tumor weight of control group of tumor-bearing mice without administration)]}×100%.
# KG-1 cells = experiment: Antiproliferative activity against KG-1 cells (CCK8, 72 h); format: cell-based; details: Homo sapiens
# Method: KG-1 cells in the logarithmic growth phase were diluted in a culture medium (RPMI+10% FBS) and plated onto 96-well plates at 5000 cells/well, and the plates were incubated in an incubator at 37° C. with 5% CO2 for 24 hours. 10 mM stock solutions of the test compounds of the present disclosure in DMSO were prepared and diluted with the culture medium to set 9 concentration gradients. Three replicate wells were set for each concentration. After compound addition, the plates were incubated in an incubator at 37° C. with 5% CO2 for 72 hours. The cell proliferation was assessed using the CCK8 method. The cell growth inhibition IC50 values of the compounds were determined using an enzyme labeling method. The IC50 values were calculated using GraphPad Prism 7 software.
# The antiproliferative activity of the compounds against KG-1 cells is shown in Table 2, where A represents IC50<1 nM, B represents 1<IC50<10 nM, C represents 10 nM≤IC50<100 nM, D represents 100 nM≤IC50<1000 nM, and E represents IC50≥1000 nM.
# [7] = 60 mg/kg once daily oral gavage
Compound,bioavailability [1] [%],dependence of GSPT1 degradation on concentration and time (GSPT1 [2]),dependence of GSPT1 degradation on concentration and time (GSPT1 [4]),clearance rate relative to CC-90009 ([1]; compared to CC-90009),half-life relative to CC-90009 ([1]; compared to CC-90009),initial plasma concentration relative to CC-90009 ([1]; compared to CC-90009),plasma drug exposure level relative to CC-90009 ([1]; compared to CC-90009),weight loss in mice [6],"exposure level relative to CC-90009 ([1]; oral, compared to CC-90009)",also measured
"O=C1CCC(N2Cc3cc(CNC(=O)C(F)(F)c4ccc(Cl)cc4)ccc3C2=O)C(=O)N1 (centres unmarked) [CC-90009, reference compound]",31.2 ± 9.1,,,,,,,,,
"O=C1CCC(N2Cc3cc(CNC(=O)C4=Cc5ccccc5OC4)ccc3C2=O)C(=O)N1 (centres unmarked) [Compound A-1, N-((2-(2,6-Dioxopiperidin-3-yl)-1-oxoisoindolin-5-yl)methyl)-2H-chromene-3-carboxamide]",19.3 ± 3.4,concentration-dependent and time-dependent; also recorded: more significant than that of CC-90009,concentration-dependent and time-dependent; also recorded: more significant than that of CC-90009,less than that of the clinical drug CC-90009,close to that of CC-90009,greatly superior to those of CC-90009,greatly superior to those of CC-90009,,,RLM CL [3]: 3.75 µL/min/mg; RLM T1/2 [3]: 6.1657 h
"O=C1CCC(N2Cc3cc(CNC(=O)C4=Cc5cc(OC(F)(F)F)ccc5OC4)ccc3C2=O)C(=O)N1 (centres unmarked) [Compound A-10, N-((2-(2,6-Dioxopiperidin-3-yl)-1-oxoisoindolin-5-yl)methyl)-6-trifluoromethoxy-2H-chromene-3-carboxamide]",22.9 ± 12.6,concentration-dependent,concentration-dependent,one third of that of CC-90009,longer than that of CC-90009,much higher than that of CC-90009,nearly four times that of CC-90009,no significant weight loss,nearly three times that of CC-90009,"time-dependent degradation of GSPT1 (GSPT1 [5]): time-dependent; tumor weight TGI (MV411 xenograft; 15 mg/kg once daily oral gavage): 20.82%; tumor weight TGI (MV411 xenograft; 30 mg/kg once daily oral gavage): 56.61%; tumor weight TGI (MV411 xenograft; [7]): 59.76%; in vivo anti-tumor effect compared to CC-90009 (MV411 xenograft; MV411 xenograft, oral gavage, vs CC-90009): significantly better than that of the clinical molecule CC-90009; TGI (22RV1 xenograft; [7]): 95.10%; TGI compared to CC-90009 and enzalutamide (22RV1 xenograft; 22RV1 xenograft, 60 mg/kg oral gavage): significantly better than those of the clinical molecule CC-90009 and the commercially available drug enzalutamide; peak ([1]; oral, compared to CC-90009): relatively high peak; time to peak ([1]; oral, compared to CC-90009): relatively small time to peak"
Cc1cc2c(cc1Cl)C=C(C(=O)NCc1ccc3c(c1)CN(C1CCC(=O)NC1=O)C3=O)CO2 (centres unmarked) [Compound A-28],,,,,,,,,,IC50 (KG-1 cells): 10 to 100 nM
"O=C1CCC(N2Cc3c(ccc(CNC(=O)C4=Cc5cc(OC(F)(F)F)ccc5OC4)c3F)C2=O)C(=O)N1 (centres unmarked) [Compound A-42, N-((2-(2,6-Dioxopiperidin-3-yl)-4-fluoro-1-oxoisoindolin-5-yl)methyl)-6-(trifluoromethoxy)-2H-chromene-3-carboxamide]",9.8 ± 1.5,,,lower clearance rate,,,fourteen times,no significant weight loss,four times,"in vivo anti-tumor effect compared to MRT-2359 (MV411 xenograft; MV411 xenograft, 60 mg/kg oral gavage, vs MRT-2359): comparable to that of the clinical molecule MRT-2359"
